Assay results taken from patent publication US20110034426A1, “Method of Preventing Renal Disease and Treating Symptoms Thereof” (WISCONSIN ALUMNI RESEARCH FOUNDATION, priority 2009, published 2011).
“Also recorded” adds a separate entry of the source.

Key:
MRL/MpJ-Fas^lpr/J mice [1] = test: Proteinuria in MRL/lpr mouse model of systemic lupus erythematosus / lupus nephritis; assay type: in vivo
Method: (§1) Mice. […] Water was given ad libitum.
(§2) Proteinuria measurements. Proteinuria measurements were performed by putting gentle pressure on the bladder for spot urine analysis on a clean surface with a semi-quantitative dipstick (Combistix, Bayer). Mice were determined to have proteinuria when urinary protein output was 100 mg/dL or more. Urine was collected by placing the animals in metabolic cages and performing two-24 hr collections. Total protein was measured using a Bradford assay. (MM Bradford, Analytical Biochemistry 72: 248-254, 1976).

[2] = Growth, body weight and clinical signs in treated MRL/lpr mice; assay type: in vivo
Source text: as §1

MRL/MpJ-Fas^lpr/J mice [3] = test: Kidney and heart histology in MRL/lpr mice; assay type: in vivo
Method: as §1
Histology. Half of a kidney was preserved in cold zinc formalin fixative, embedded in paraffin, and sectioned 4 μm thick. Hematoxylin and eosin (H&E) and Masson-Goldner's trichrome were used to study histological differences between kidney samples. Von Kossa staining was performed on whole heart sections (processed as described above) to determine heart calcification. Sectioning and staining was performed by the University of Wisconsin—Madison McArdle Histology Laboratory. Micrographs in the figures were taken by an Olympus BH-2 microscope and Nikon Coolpix 990 digital camera.

MRL/MpJ-Fas^lpr/J mice [4] = test: Splenomegaly (spleen mass and histology) in MRL/lpr mice; assay type: in vivo
Source text: as §1

[5] = system: ⅚ths Nephrectomy Rat Model; test: ⅚ths Nephrectomy Rat Model (uremic rat); assay type: in vivo, Sprague-Dawley rats; settings: uremic rats
Source text: ⅚ths Nephrectomy Rat Model. Disease Induction. Weanling, male Sprague-Dawley rats were obtained from Harlan (Madison, Wis.). Following a 10-13 day acclimation period, the animals had two-thirds of one kidney removed. After a week, the other entire kidney was removed. The animals were then switched from a chow diet to a purified rodent diet (Suda et al., Purified Rodent Diet-Diet 11) containing 0.6% Ca and 0.9% phosphorus and fat soluble vitamins A, D, E and K. Water and diet were provided ad libitum.
Animal Husbandry. Animals were housed in suspended, plastic shoe-box style cages with corn cob bedding (prior to surgery) or in stainless steel, wire-bottom cages (approximately one week after surgery). The animal rooms were maintained at a temperature of 68 to 72° F. and a relative humidity of 25 to 75%. The holding rooms were set to provide 12 hours of light per day.
Treatment Groups. Approximately four weeks after the second surgery, animals were assigned to treatment groups (14-15 animals/group) so that each group had the same average PTH level.
Dose Preparation (Vehicle Formulation). The negative control material was prepared by volumetrically measuring ethanol (5%) and Neobee oil, mixing and then placing in storage at 2 to 8° C.
Dose Preparation (2MD Formulation). 2MD formulations (DP001, Sigma Aldrich Fine Chemicals, Madison, Wis.) were prepared by first determining the concentration of an ethanol stock solution using UV spectrophotometry (extinction coefficient=42,000; max=252 nm). The solutions were then volumetrically added to Neobee oil so that there was no more than 5% ethanol in the final solution. If necessary, additional ethanol was added to bring the final ethanol amount to 5%. The solution was mixed and stored at 2 to 8° C.
Dose Administration Method. Both vehicle and 2MD were administered orally to the back of the tongue at 0.5 ml/kg body weight once daily for 8 weeks.
Serum Parathyroid Hormone (PTH) Levels. By “serum PTH levels” we mean the amount of PTH released by the parathyroid gland. PTH is the most important regulator of the body's calcium and phosphorus levels, and is controlled by the level of calcium in the blood. Low blood calcium levels cause increased PTH to be released, while high blood calcium levels inhibit PTH release. Normal values are 10-55 picograms per milliliter (pg/mL). Four weeks after surgery and 4 and 8 weeks after treatment initiation, blood was collected from the tail artery and the concentration of bioactive serum PTH was measured using the rat BioActive Intact PTH ELISA Kit from Immutopics, Inc. (San Clemente, Calif.).
Serum Calcium Analysis. Four weeks following surgery and 4 and 8 weeks after treatment started, blood was collected from the tail artery of each experimental animal. The blood was allowed to coagulate at room temperature and then centrifuged at 3000×g for 15 minutes. The serum was transferred to a polypropylene tube and stored frozen at −20° C. The level of calcium was determined by diluting the serum into 0.1% lanthum chloride and measuring the absorbance on an atomic absorption spectrophotometer (Perkin Elmer Model 3110, Shelton, Conn.).
Phosphorus Assay. Four weeks after surgery and 8 weeks after treatment started, blood was collected from the tail artery of each experimental animal. The blood was allowed to coagulate at room temperature and then centrifuged at 3000×g for 15 minutes. The serum was transferred to a polypropylene tube and stored frozen at −20° C. The level of phosphorus was determined using a clinical analyzer (Pentra 400, Horiba ABX Diagnostics—France; UV method using phosphomolybdate).
Creatinine Assay. Measuring serum creatinine levels is a useful and inexpensive method of evaluating renal dysfunction. Creatinine is a non-protein waste product of […] metabolism by skeletal muscle tissue. Creatinine production is continuous and is proportional to muscle mass. […]

NOD mice = test: NOD Mouse Model of Type I Diabetic Nephropathy; assay type: in vivo; settings: 2MD in the diet
Method: as §2
Disease Induction. NOD mice (breeder pairs) were obtained from JAX laboratories (Bar Harbor, Me.). Weanling mice were placed on chow diet (5K52 Lab Diets) or purified diet (Suda et al., Purified Rodent Diet-Diet 11) and allowed to spontaneously develop diabetes (two consecutive measurements of plasma glucose >[…]). Water and diet were provided ad libitum.
Animal Husbandry. Animals were housed in autoclaved, plastic shoe-box style cages with corn cob bedding in groups of 2-4 animals/cage. Once mice were confirmed diabetic, the cages were changed daily. The animal rooms were maintained at a temperature of 68 to 72° F. and a relative humidity of 25 to 75%. […]
Treatment Groups. […] Once animals were determined to be diabetic, animals were assigned to treatment groups (6-12/group) so that each group would have the same average plasma glucose level at enrollment. […]

[6] = Serum calcium in treated MRL/lpr mice
Method: Mice. All mice used in this study were female MRL/MpJ-Fas^lpr/J mice either purchased directly or originally purchased from The Jackson Laboratory and bred in house. All mice involved in each study were age matched to the week of birth. All animal handling was performed according to protocol A1205 approved by the University of Wisconsin—Madison Institutional Animal Care and Use Committee. From weaning, female mice were placed on purified diet containing 0.47% calcium without 2MD until treatment initiation. The purified powder diet was prepared in agar form and administered 3 times a week. 2MD was administered through diet based on 5 g daily diet consumption per mouse. Water was given ad libitum. Blood was taken via retro-orbital bleeding method under isoflurane anesthetic. Serum was isolated from blood samples, frozen and subsequently analyzed with a benchtop clinical chemistry analyzer (Pentra 400, Horiba ABX).

MRL/MpJ-Fas^lpr/J mice [7] = settings: 300 ng per day 1,25(OH)2D3 in diet, earlier thesis work (Kim 2009); cited from earlier work
[8] = daily oral 2MD for 8 weeks vs vehicle
[9] = daily oral 2MD vs vehicle, six weeks after treatment initiation

C=C1[C@H](O)CC(=C/C=C2\CCC[C@@]3(C)C2CCC3[C@@H](C)CCCC(C)(C)O)C[C@H]1O (stereo partly drawn) [2MD, 2-methylene-19-nor-(20S)-1α,25-(OH)2D3]
reduction in proteinuria incidence (MRL/MpJ-Fas^lpr/J mice [1]; 1 ng 2MD per mouse per day in diet, MRL/lpr mice): > 60%
mean time of onset of proteinuria (MRL/MpJ-Fas^lpr/J mice [1]; 1 ng 2MD, MRL/lpr mice): delayed mean time of onset of proteinuria
proteinuria (terminal incidence) (MRL/MpJ-Fas^lpr/J mice [1]; 5 ng 2MD/mouse/day in diet, MRL/lpr mice, treatment week 10 to 19): completely preventing proteinuria; also recorded: completely prevented; also recorded: sufficient to prevent proteinuria
hypercalcemia and associated effects including weight loss, compared with 150 ng 1,25(OH)2D3 ([2]; 1 ng 2MD): significantly less
clinical symptoms of hypercalcemia ([2]; 5 ng 2MD): symptoms of hypercalcemia including unkempt fur and nervousness
growth / weight loss ([2]; 5 ng 2MD): adversely affected; also recorded: Weight loss is most severe
growth ([2]; 0.5 and 1 ng 2MD): slight impact on growth; also recorded: very mild
lethargy or morbidity ([2]; any 2MD dose group (0.5, 1, 5 ng)): no lethargy or morbidity was observed
perivascular infiltration (MRL/MpJ-Fas^lpr/J mice [3]; 5 ng 2MD vs control): slight decrease; also recorded: noticeably decreased
tubulointerstitial infiltration of leukocytes (MRL/MpJ-Fas^lpr/J mice [3]; 5 ng 2MD vs control): noticeable decrease; also recorded: substantially less
glomerular damage (sclerosis, fibrosis, basement membrane thickening, mesangial proliferation) (MRL/MpJ-Fas^lpr/J mice [3]; 5 ng 2MD vs control, kidney histology): prevented
interstitial fibrosis (fibrotic staining) (MRL/MpJ-Fas^lpr/J mice [3]; 5 ng 2MD vs control, trichrome stain): significantly less; also recorded: the extent and frequency was much less
calcification in kidneys and hearts (MRL/MpJ-Fas^lpr/J mice [3]; 2MD treated MRL/lpr mice): lack of evidence of calcification; also recorded: absence of calcification artifacts
spleen histology (white pulp structure) (MRL/MpJ-Fas^lpr/J mice [4]; 5 ng 2MD): helps retain the sheath-like structure; also recorded: retains some of the sheath structure
splenomegaly / spleen weight (also normalized to body weight) (MRL/MpJ-Fas^lpr/J mice [4]; 5 ng 2MD vs 0 ng control, p<0.05): significantly reduced splenomegaly; also recorded: significantly decreased
all markers of kidney failure ([5]; 2MD treatment): improved
serum creatinine [5, 8]: lower levels
serum phosphorus [5, 8]: lower levels
urinary protein excretion [5, 9]: lower levels
urinary volume [5, 9]: lower levels
bone mineral density (total body BMD) ([5]; daily oral 2MD): improved bone mineral densities; also recorded: increased bone mineral density
overall survival ([5]; daily oral 2MD): increased overall survival
serum PTH levels ([5]; daily oral 2MD): decreased PTH levels; also recorded: lower PTH levels
total serum calcium ([5]; dose levels of 2MD giving the positive effects): do not significantly raise serum calcium
overall urine volume output (NOD mice): reduced; also recorded: marked improvement
total urinary protein excretion (NOD mice): reduced; also recorded: marked improvement
serum calcium levels ([6]; 1 ng 2MD, MRL/lpr mice, throughout the study): within the physiologically normal range
serum calcium levels ([6]; 5 ng 2MD per mouse per day, MRL/lpr mice): without dramatically increasing
serum calcium, highest measured point ([6]; 5 ng 2MD, MRL/lpr mice): 12.4 mg/dL
serum calcium at study termination ([6]; 5 ng 2MD, MRL/lpr mice, week 19): 10.9 mg/dL
serum calcium levels ([6]; 2MD treatment (0.5, 1, 5 ng), week 10 to 19, MRL/lpr mice): mildly elevated

C=C1/C(=C\C=C2/CCC[C@]3(C)[C@@H]([C@H](C)CCCC(C)(C)O)CC[C@@H]23)C[C@@H](O)C[C@@H]1O [1,25(OH)2D3, 1α,25-dihydroxyvitamin D3, reference compound]
prevention of proteinuria (MRL/MpJ-Fas^lpr/J mice [1]; 300 ng 1,25(OH)2D3 compared with 5 ng 2MD): equally effective
spleen mass reduction (MRL/MpJ-Fas^lpr/J mice [4]; 150 ng per day 1,25(OH)2D3): comparable to that achieved with 5 ng 2MD treatment
spleen histology, compared with 5 ng 2MD (MRL/MpJ-Fas^lpr/J mice [4]; 300 ng 1,25(OH)2D3): better retention of normal spleen histology
spleen mass normalized to body weight (MRL/MpJ-Fas^lpr/J mice [4]; 300 ng 1,25(OH)2D3): statistically significant reduction
spleen mass, compared with 5 ng 2MD (MRL/MpJ-Fas^lpr/J mice [4]; 300 ng 1,25(OH)2D3): greater reduction in spleen mass
proteinuria (MRL/MpJ-Fas^lpr/J mice [7]): completely prevents proteinuria
